According to PMC12155096 (International Journal of Molecular Sciences, 2025):
Structures can show the parent of a compound that is named as a salt.

target: T1, human CYP1A2 (Homo sapiens, UniProt P05177); test: biochemical; conditions: CYP1A2 IC50 (half-maximal inhibitory concentration), mean ± standard deviation from three experiments; qHTS
T1 sequence (P05177 1-516): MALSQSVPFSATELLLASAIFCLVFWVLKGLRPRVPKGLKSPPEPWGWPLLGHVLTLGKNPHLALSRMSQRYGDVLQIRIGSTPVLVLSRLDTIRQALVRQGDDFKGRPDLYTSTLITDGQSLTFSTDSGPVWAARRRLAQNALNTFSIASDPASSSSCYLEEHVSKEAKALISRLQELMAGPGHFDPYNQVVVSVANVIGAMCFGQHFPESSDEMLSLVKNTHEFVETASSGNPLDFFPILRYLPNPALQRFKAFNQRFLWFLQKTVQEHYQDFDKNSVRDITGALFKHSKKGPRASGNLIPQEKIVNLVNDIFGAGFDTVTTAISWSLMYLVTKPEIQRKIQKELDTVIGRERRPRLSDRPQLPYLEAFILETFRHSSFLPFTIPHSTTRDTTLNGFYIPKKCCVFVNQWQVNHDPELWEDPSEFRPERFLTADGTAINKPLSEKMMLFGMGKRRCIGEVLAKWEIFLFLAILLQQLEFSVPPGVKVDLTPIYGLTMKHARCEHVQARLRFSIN

| SMILES | IC50 |
| --- | --- |
| Clc1ccc(Nc2nnc(Cc3ccncc3)c3ccccc23)cc1 [Vatalanib] | 2.03 ± 0.52 µM |

target: CYP3A4 (Homo sapiens, UniProt P08684); test: not given; conditions: not given
Sequence (P08684 whole entry): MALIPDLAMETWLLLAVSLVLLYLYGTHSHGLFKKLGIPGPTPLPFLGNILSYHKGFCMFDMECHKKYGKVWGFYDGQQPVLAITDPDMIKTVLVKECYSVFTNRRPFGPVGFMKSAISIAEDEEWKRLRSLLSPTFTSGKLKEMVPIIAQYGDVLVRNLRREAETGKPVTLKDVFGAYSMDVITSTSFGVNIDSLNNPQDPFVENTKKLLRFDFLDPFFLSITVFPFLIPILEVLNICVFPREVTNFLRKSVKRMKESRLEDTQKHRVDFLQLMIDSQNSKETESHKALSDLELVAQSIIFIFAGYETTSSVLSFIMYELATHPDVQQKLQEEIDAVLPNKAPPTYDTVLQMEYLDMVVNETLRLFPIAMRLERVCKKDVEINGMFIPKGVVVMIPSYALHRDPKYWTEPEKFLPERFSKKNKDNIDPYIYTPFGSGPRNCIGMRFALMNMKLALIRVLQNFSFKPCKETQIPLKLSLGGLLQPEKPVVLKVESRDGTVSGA

| SMILES | CYP3A4 AC50 (half-maximal activity concentration) |
| --- | --- |
| Oc1ccc(Sc2ccc(O)cc2)cc1 [4,4'-Thiodiphenol] | Inconclusive inhibitor |
| NS(=O)(=O)c1ccc(Cl)c(S(N)(=O)=O)c1 [Clofenamide] | Inactive |

target: T2, human CYP2C9 (Homo sapiens, UniProt P11712); test: biochemical; conditions: not given
T2 sequence (P11712 whole entry): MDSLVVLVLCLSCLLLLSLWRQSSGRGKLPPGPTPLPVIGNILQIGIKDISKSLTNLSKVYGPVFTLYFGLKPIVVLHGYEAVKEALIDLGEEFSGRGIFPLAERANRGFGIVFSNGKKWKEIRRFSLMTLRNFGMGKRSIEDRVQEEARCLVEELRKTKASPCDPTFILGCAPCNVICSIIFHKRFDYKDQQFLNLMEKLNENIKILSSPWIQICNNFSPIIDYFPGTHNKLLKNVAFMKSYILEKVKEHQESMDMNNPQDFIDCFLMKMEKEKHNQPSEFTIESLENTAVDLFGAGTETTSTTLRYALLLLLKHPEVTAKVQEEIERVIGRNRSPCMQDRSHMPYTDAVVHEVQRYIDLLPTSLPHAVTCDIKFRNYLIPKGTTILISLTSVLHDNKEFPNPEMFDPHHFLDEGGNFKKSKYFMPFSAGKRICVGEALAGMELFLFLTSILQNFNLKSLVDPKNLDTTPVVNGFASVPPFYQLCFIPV

| SMILES | AC50 | IC50 |
| --- | --- | --- |
| Oc1ccc(Sc2ccc(O)cc2)cc1 [4,4'-Thiodiphenol] | 3.66 µM | – |
| C=CC[C@]1(O)CC[C@H]2[C@@H]3CCC4=CC(=O)CCC4=C3C=C[C@@]21C [Altrenogest] | – | 14.8 ± 4.35 µM |
| CCN(CC)CCOC(=O)C(C)(c1ccccc1)c1ccccc1 [Aprofene] | – | 12.9 µM |
| Clc1ccc(Nc2nnc(Cc3ccncc3)c3ccccc23)cc1 [Vatalanib] | – | 0.79 µM |

same assay, conditions: CYP2C9 AC50 (half-maximal activity concentration)

| SMILES | AC50 |
| --- | --- |
| NS(=O)(=O)c1ccc(Cl)c(S(N)(=O)=O)c1 [Clofenamide] | 19.8 µM |

same assay, conditions: CYP2C9 IC50

| SMILES | IC50 |
| --- | --- |
| C[C@@H](O[C@H]1OCCN(Cc2n[nH]c(=O)[nH]2)[C@H]1c1ccc(F)cc1)c1cc(C(F)(F)F)cc(C(F)(F)F)c1 [Aprepitant] | 13.8 µM |
| CC(NCCC(c1ccccc1)c1ccccc1)c1ccccc1 (stereo not shown) [Fendiline hydrochloride] | 15.5 µM |
| CCCC(C(=O)OCCN(CC)CC)(c1ccccc1)c1ccccc1 [Proadifen hydrochloride] | 12.1 µM |
| O=C1NCN(c2ccccc2)C12CCN(CC1COc3ccccc3O1)CC2 (stereo not shown) [Spiroxatrine] | 10.8 µM |

target: T3, human CYP2D6 (Homo sapiens, UniProt P10635); test: biochemical; conditions: not given
T3 sequence (P10635 whole entry): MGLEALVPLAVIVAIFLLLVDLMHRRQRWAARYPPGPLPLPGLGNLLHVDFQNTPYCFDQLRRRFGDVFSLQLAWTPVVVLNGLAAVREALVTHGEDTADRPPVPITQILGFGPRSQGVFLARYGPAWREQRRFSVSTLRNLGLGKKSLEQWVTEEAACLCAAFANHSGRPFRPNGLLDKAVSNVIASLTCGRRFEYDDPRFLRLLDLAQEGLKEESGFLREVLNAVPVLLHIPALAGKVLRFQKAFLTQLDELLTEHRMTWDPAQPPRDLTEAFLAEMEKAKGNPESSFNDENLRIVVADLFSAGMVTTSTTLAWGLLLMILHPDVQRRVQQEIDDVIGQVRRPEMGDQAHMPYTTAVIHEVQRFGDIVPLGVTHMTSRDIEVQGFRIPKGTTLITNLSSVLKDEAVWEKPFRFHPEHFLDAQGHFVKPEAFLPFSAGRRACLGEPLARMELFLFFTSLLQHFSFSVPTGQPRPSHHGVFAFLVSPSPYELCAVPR

| SMILES | AC50 | IC50 |
| --- | --- | --- |
| Oc1ccc(Sc2ccc(O)cc2)cc1 [4,4'-Thiodiphenol] | 30.9 µM | – |
| C=CC[C@]1(O)CC[C@H]2[C@@H]3CCC4=CC(=O)CCC4=C3C=C[C@@]21C [Altrenogest] | – | 46.9 ± 11.3 µM |
| CCN(CC)CCOC(=O)C(C)(c1ccccc1)c1ccccc1 [Aprofene] | – | 1.57 µM |
| Clc1ccc(Nc2nnc(Cc3ccncc3)c3ccccc23)cc1 [Vatalanib] | – | 5.98 µM |

same assay, conditions: CYP2D6 AC50 (half-maximal activity concentration)

| SMILES | AC50 |
| --- | --- |
| NS(=O)(=O)c1ccc(Cl)c(S(N)(=O)=O)c1 [Clofenamide] | 30.6 µM |

same assay, conditions: CYP2D6 IC50

| SMILES | IC50 |
| --- | --- |
| C[C@@H](O[C@H]1OCCN(Cc2n[nH]c(=O)[nH]2)[C@H]1c1ccc(F)cc1)c1cc(C(F)(F)F)cc(C(F)(F)F)c1 [Aprepitant] | 25 µM |
| CC(C)COCC(CN(Cc1ccccc1)c1ccccc1)N1CCCC1 (stereo not shown) [Bepridil] | 0.06 µM |
| CC(CC1c2ccccc2CCc2ccccc21)CN(C)C (stereo not shown) [Butriptyline] | 0.97 µM |
| CC(NCCC(c1ccccc1)c1ccccc1)c1ccccc1 (stereo not shown) [Fendiline hydrochloride] | 0.23 µM |
| CCCCC(CC)CN1CN(CC(CC)CCCC)CC(C)(N)C1 (stereo not shown) [Hexetidine] | 0.48 µM |
| CN1CCCN(C(c2ccccc2)c2ccc(Cl)cc2)CC1 (stereo not shown) [Homochlorcyclizine] | 0.38 µM |
| COCC(=O)O[C@]1(CCN(C)CCCc2nc3ccccc3[nH]2)CCc2cc(F)ccc2[C@@H]1C(C)C [Mibefradil dihydrochloride] | 0.53 µM |
| CCCC(C(=O)OCCN(CC)CC)(c1ccccc1)c1ccccc1 [Proadifen hydrochloride] | 0.2 µM |
| O=C1NCN(c2ccccc2)C12CCN(CC1COc3ccccc3O1)CC2 (stereo not shown) [Spiroxatrine] | 0.19 µM |

same assay, conditions: CYP2D6 IC50 (half-maximal inhibitory concentration)

| SMILES | IC50 |
| --- | --- |
| COc1ccc([C@@H]2Sc3ccccc3N(CCN(C)C)C(=O)[C@@H]2OC(C)=O)cc1 [Diltiazem] | 19.1 µM |

target: T3, human CYP2D6; test: not given; conditions: human

| SMILES | CYP2D6 Efficacy (in parenthesis) |
| --- | --- |
| Clc1ccc(Nc2nnc(Cc3ccncc3)c3ccccc23)cc1 [Vatalanib] | 5.98 ± 9.87 (-107 ± 3) % |

target: Photinus pyralis (firefly) luciferase (Photinus pyralis, UniProt P08659); test: biochemical; format: biochemical; conditions: not given
Sequence (P08659 whole entry): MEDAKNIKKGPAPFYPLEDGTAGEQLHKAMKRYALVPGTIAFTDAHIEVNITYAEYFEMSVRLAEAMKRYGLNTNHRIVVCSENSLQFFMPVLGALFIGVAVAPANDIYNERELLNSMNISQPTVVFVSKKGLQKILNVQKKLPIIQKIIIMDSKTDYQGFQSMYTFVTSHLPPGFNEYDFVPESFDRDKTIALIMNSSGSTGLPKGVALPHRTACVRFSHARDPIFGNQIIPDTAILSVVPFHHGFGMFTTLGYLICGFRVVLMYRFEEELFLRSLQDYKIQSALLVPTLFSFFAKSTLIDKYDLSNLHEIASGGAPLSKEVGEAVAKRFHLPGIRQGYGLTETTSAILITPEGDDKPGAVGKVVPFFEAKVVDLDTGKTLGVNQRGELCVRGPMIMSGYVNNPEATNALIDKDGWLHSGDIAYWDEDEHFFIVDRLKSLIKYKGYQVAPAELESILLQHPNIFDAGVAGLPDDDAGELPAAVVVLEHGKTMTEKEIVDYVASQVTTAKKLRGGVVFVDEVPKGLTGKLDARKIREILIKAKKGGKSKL

| SMILES | Luciferase IC50 | IC50 | Luciferase IC50 (half-maximal inhibitory concentration) |
| --- | --- | --- | --- |
| C=CC[C@]1(O)CC[C@H]2[C@@H]3CCC4=CC(=O)CCC4=C3C=C[C@@]21C [Altrenogest] | Inactive | – | – |
| C[C@@H](O[C@H]1OCCN(Cc2n[nH]c(=O)[nH]2)[C@H]1c1ccc(F)cc1)c1cc(C(F)(F)F)cc(C(F)(F)F)c1 [Aprepitant] | Inactive | – | – |
| CCN(CC)CCOC(=O)C(C)(c1ccccc1)c1ccccc1 [Aprofene] | Inactive | – | – |
| CC(C)COCC(CN(Cc1ccccc1)c1ccccc1)N1CCCC1 (stereo not shown) [Bepridil] | Inactive | – | – |
| CC(CC1c2ccccc2CCc2ccccc21)CN(C)C (stereo not shown) [Butriptyline] | – | 8.71 µM | – |
| COc1ccc([C@@H]2Sc3ccccc3N(CCN(C)C)C(=O)[C@@H]2OC(C)=O)cc1 [Diltiazem] | – | – | Inactive |
| CC(NCCC(c1ccccc1)c1ccccc1)c1ccccc1 (stereo not shown) [Fendiline hydrochloride] | Inactive | – | – |
| CCCCC(CC)CN1CN(CC(CC)CCCC)CC(C)(N)C1 (stereo not shown) [Hexetidine] | Inactive | – | – |
| CN1CCCN(C(c2ccccc2)c2ccc(Cl)cc2)CC1 (stereo not shown) [Homochlorcyclizine] | Inactive | – | – |
| COCC(=O)O[C@]1(CCN(C)CCCc2nc3ccccc3[nH]2)CCc2cc(F)ccc2[C@@H]1C(C)C [Mibefradil dihydrochloride] | Inactive | – | – |
| CCCC(C(=O)OCCN(CC)CC)(c1ccccc1)c1ccccc1 [Proadifen hydrochloride] | Inactive | – | – |
| O=C1NCN(c2ccccc2)C12CCN(CC1COc3ccccc3O1)CC2 (stereo not shown) [Spiroxatrine] | Inactive | – | – |

target: T4, human CYP2C19 (Homo sapiens, UniProt P33261); test: not given; conditions: not given
T4 sequence (P33261 whole entry): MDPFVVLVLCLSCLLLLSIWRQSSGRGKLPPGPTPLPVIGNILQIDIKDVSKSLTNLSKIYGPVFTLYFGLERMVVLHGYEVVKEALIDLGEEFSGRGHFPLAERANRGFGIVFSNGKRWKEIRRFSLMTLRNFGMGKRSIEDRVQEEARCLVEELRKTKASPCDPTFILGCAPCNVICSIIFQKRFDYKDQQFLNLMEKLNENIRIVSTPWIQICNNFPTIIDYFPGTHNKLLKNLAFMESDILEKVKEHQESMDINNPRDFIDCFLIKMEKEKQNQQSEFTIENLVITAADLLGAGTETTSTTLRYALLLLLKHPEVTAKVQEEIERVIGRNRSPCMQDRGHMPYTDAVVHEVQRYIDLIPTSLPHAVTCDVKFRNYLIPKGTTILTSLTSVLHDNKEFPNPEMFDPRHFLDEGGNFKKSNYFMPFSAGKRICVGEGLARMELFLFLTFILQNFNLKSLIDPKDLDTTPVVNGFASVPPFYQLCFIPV

| SMILES | CYP2C19 AC50 (half-maximal activity concentration) | CYP2C19 IC50 (half-maximal inhibitory concentration) | CYP2C19 IC50 |
| --- | --- | --- | --- |
| NS(=O)(=O)c1ccc(Cl)c(S(N)(=O)=O)c1 [Clofenamide] | Inactive | – | – |
| COc1ccc([C@@H]2Sc3ccccc3N(CCN(C)C)C(=O)[C@@H]2OC(C)=O)cc1 [Diltiazem] | – | Inactive | – |
| CCCCC(CC)CN1CN(CC(CC)CCCC)CC(C)(N)C1 (stereo not shown) [Hexetidine] | – | – | Inactive |

same assay, conditions: human

| SMILES | CYP2C19 Efficacy (in parenthesis) |
| --- | --- |
| Clc1ccc(Nc2nnc(Cc3ccncc3)c3ccccc23)cc1 [Vatalanib] | 1.1 ± 0.95 (-157 ± 44) % |

target: T2, human CYP2C9; test: not given; conditions: not given

| SMILES | CYP2C9 IC50 | CYP2C9 IC50 (half-maximal inhibitory concentration) |
| --- | --- | --- |
| CC(CC1c2ccccc2CCc2ccccc21)CN(C)C (stereo not shown) [Butriptyline] | Inactive | – |
| COc1ccc([C@@H]2Sc3ccccc3N(CCN(C)C)C(=O)[C@@H]2OC(C)=O)cc1 [Diltiazem] | – | Inactive |
| CCCCC(CC)CN1CN(CC(CC)CCCC)CC(C)(N)C1 (stereo not shown) [Hexetidine] | Inactive | – |
| CN1CCCN(C(c2ccccc2)c2ccc(Cl)cc2)CC1 (stereo not shown) [Homochlorcyclizine] | Inactive | – |
| COCC(=O)O[C@]1(CCN(C)CCCc2nc3ccccc3[nH]2)CCc2cc(F)ccc2[C@@H]1C(C)C [Mibefradil dihydrochloride] | Inactive | – |

same assay, conditions: human

| SMILES | CYP2C9 Efficacy (in parenthesis) |
| --- | --- |
| Clc1ccc(Nc2nnc(Cc3ccncc3)c3ccccc23)cc1 [Vatalanib] | 0.79 ± 0.66 (-96 ± 3) % |

target: T1, human CYP1A2; test: not given; conditions: not given

| SMILES | CYP1A2 AC50 (half-maximal activity concentration) | CYP1A2 IC50 | CYP1A2 IC50 (half-maximal inhibitory concentration) |
| --- | --- | --- | --- |
| Oc1ccc(Sc2ccc(O)cc2)cc1 [4,4'-Thiodiphenol] | Inconclusive inhibitor | – | – |
| C=CC[C@]1(O)CC[C@H]2[C@@H]3CCC4=CC(=O)CCC4=C3C=C[C@@]21C [Altrenogest] | – | Inactive | – |
| C[C@@H](O[C@H]1OCCN(Cc2n[nH]c(=O)[nH]2)[C@H]1c1ccc(F)cc1)c1cc(C(F)(F)F)cc(C(F)(F)F)c1 [Aprepitant] | – | Inactive | – |
| CCN(CC)CCOC(=O)C(C)(c1ccccc1)c1ccccc1 [Aprofene] | – | Inactive | – |
| CC(C)COCC(CN(Cc1ccccc1)c1ccccc1)N1CCCC1 (stereo not shown) [Bepridil] | – | Inactive | – |
| CC(CC1c2ccccc2CCc2ccccc21)CN(C)C (stereo not shown) [Butriptyline] | – | Inactive | – |
| NS(=O)(=O)c1ccc(Cl)c(S(N)(=O)=O)c1 [Clofenamide] | Inactive | – | – |
| COc1ccc([C@@H]2Sc3ccccc3N(CCN(C)C)C(=O)[C@@H]2OC(C)=O)cc1 [Diltiazem] | – | – | Inactive |
| CC(NCCC(c1ccccc1)c1ccccc1)c1ccccc1 (stereo not shown) [Fendiline hydrochloride] | – | Inactive | – |
| CCCCC(CC)CN1CN(CC(CC)CCCC)CC(C)(N)C1 (stereo not shown) [Hexetidine] | – | Inactive | – |
| CN1CCCN(C(c2ccccc2)c2ccc(Cl)cc2)CC1 (stereo not shown) [Homochlorcyclizine] | – | Inactive | – |
| COCC(=O)O[C@]1(CCN(C)CCCc2nc3ccccc3[nH]2)CCc2cc(F)ccc2[C@@H]1C(C)C [Mibefradil dihydrochloride] | – | Inactive | – |
| CCCC(C(=O)OCCN(CC)CC)(c1ccccc1)c1ccccc1 [Proadifen hydrochloride] | – | Inactive | – |
| O=C1NCN(c2ccccc2)C12CCN(CC1COc3ccccc3O1)CC2 (stereo not shown) [Spiroxatrine] | – | Inactive | – |

same assay, conditions: human

| SMILES | CYP1A2 Efficacy (in parenthesis) |
| --- | --- |
| Clc1ccc(Nc2nnc(Cc3ccncc3)c3ccccc23)cc1 [Vatalanib] | 2.03 ± 0.52 (-97 ± 14) % |

target: T4, human CYP2C19; test: biochemical; conditions: not given

| SMILES | AC50 | IC50 |
| --- | --- | --- |
| Oc1ccc(Sc2ccc(O)cc2)cc1 [4,4'-Thiodiphenol] | 36 µM | – |
| C=CC[C@]1(O)CC[C@H]2[C@@H]3CCC4=CC(=O)CCC4=C3C=C[C@@]21C [Altrenogest] | – | 8.15 ± 2.81 µM |
| COCC(=O)O[C@]1(CCN(C)CCCc2nc3ccccc3[nH]2)CCc2cc(F)ccc2[C@@H]1C(C)C [Mibefradil dihydrochloride] | – | 38.9 µM |

same assay, conditions: CYP2C19 IC50

| SMILES | IC50 |
| --- | --- |
| C[C@@H](O[C@H]1OCCN(Cc2n[nH]c(=O)[nH]2)[C@H]1c1ccc(F)cc1)c1cc(C(F)(F)F)cc(C(F)(F)F)c1 [Aprepitant] | 23.9 µM |
| CCN(CC)CCOC(=O)C(C)(c1ccccc1)c1ccccc1 [Aprofene] | 12.3 µM |
| CC(CC1c2ccccc2CCc2ccccc21)CN(C)C (stereo not shown) [Butriptyline] | 8.39 µM |
| CC(NCCC(c1ccccc1)c1ccccc1)c1ccccc1 (stereo not shown) [Fendiline hydrochloride] | 5.65 µM |
| CN1CCCN(C(c2ccccc2)c2ccc(Cl)cc2)CC1 (stereo not shown) [Homochlorcyclizine] | 26.3 µM |
| CCCC(C(=O)OCCN(CC)CC)(c1ccccc1)c1ccccc1 [Proadifen hydrochloride] | 19.1 µM |
| O=C1NCN(c2ccccc2)C12CCN(CC1COc3ccccc3O1)CC2 (stereo not shown) [Spiroxatrine] | 8.64 µM |

same assay, conditions: CYP2C19 IC50 (half-maximal inhibitory concentration), mean ± standard deviation from three experiments; qHTS

| SMILES | IC50 |
| --- | --- |
| Clc1ccc(Nc2nnc(Cc3ccncc3)c3ccccc23)cc1 [Vatalanib] | 1.1 ± 0.95 µM |
